This passage reports EC50 results from PubChem BioAssay AID652002 (Sanford-Burnham Center for Chemical Genomics, 2013).

Experiment [1] in a line: TRAIL sensitizers in caspase-8 expressing neuroblastoma cells, dose response, NB7 cells plus caspase-8, luminescence, panel (AID 652002). The following applies: NB7 neuroblastoma +caspase-8, no TRAIL, compound-alone cytotoxicity counter-screen, luminescence viability, NB7+Caspase-8. (In general: Counterscreens check selectivity or assay interference.)
Experiment [2] addresses Tumor necrosis factor receptor superfamily member 10B (Homo sapiens) (UniProt O14763). The description is as above. The following applies: NB7 neuroblastoma +caspase-8, TRAIL sensitization, luminescence viability; NB7+Caspase-8; with TRAIL, mean of runs.
In the next experiment the target is NB7+Caspase-8. Described as above. The following applies: NB7 neuroblastoma +caspase-8, TRAIL sensitization, luminescence viability, with TRAIL.
The mark [3] stands for this setting: run 1, single replicate panel EC50.
Where [4] appears, read: run 2, single replicate panel EC50.

Active and inactive are the calls of the source. No rule for the calls is given here.

Sequence of Tumor necrosis factor receptor superfamily member 10B (Homo sapiens) (O14763 whole entry, looked up): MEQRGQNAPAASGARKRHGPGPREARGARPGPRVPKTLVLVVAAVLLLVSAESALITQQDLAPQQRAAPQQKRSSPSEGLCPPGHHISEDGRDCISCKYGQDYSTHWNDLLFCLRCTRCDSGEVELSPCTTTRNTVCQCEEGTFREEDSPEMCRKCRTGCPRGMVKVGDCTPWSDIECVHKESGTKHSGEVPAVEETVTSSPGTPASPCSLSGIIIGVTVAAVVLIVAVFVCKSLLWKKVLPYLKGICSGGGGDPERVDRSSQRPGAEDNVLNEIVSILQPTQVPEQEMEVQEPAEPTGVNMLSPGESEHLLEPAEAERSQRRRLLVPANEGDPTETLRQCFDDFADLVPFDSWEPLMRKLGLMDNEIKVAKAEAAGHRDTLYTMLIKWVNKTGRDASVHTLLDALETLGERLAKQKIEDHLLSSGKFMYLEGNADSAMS

For the molecule `CCCCCc1cc(=O)oc2c(C(CCN(CC)CC)c3cc(OC)c(OC)c(OC)c3)c(OC)cc(OC)c12` (stereo not given), the EC50 (commonly the concentration giving half of the maximal effect) in experiment [1] (mean of runs) was > 12.5 µM (inactive); in experiment [1] (setting [3]), above 12.5 µM; in experiment [1] (setting [4]), above 12.5 µM; on NB7+Caspase-8 (setting [3]), above 12.5 µM; on NB7+Caspase-8 (setting [4]) it was 10.3 µM. Further, the EC50 entry in experiment [2] was “inactive”.

Take `Cn1c(=O)c2c(SCC(=O)Nc3ccccc3F)nc(C3CC3)nc2n(C)c1=O`: the EC50 was > 12.5 µM (inactive) in experiment [1] (mean of runs); above 12.5 µM in experiment [1] (setting [3]); above 12.5 µM in experiment [1] (setting [4]); > 12.5 µM (inactive) in experiment [2]; above 12.5 µM on NB7+Caspase-8 (setting [3]); above 12.5 µM at NB7+Caspase-8 (setting [4]).

As for `Cc1ccc(-n2nnc(-c3cccnc3Cl)n2)cc1`, the EC50 is > 12.5 µM (inactive) in experiment [1] (mean of runs); above 12.5 µM in experiment [1] (setting [3]); above 12.5 µM in experiment [1] (setting [4]); > 12.5 µM (inactive) in experiment [2]; above 12.5 µM at NB7+Caspase-8 (setting [3]); above 12.5 µM at NB7+Caspase-8 (setting [4]).

For `O=C(ONC1=NCCCCC1)c1ccc(Cl)cc1`, the EC50 result in experiment [1] (mean of runs) is “inactive”. The EC50 in experiment [1] (setting [3]) is above 12.5 µM; in experiment [1] (setting [4]), 7.44 µM; in experiment [2], > 12.5 µM (inactive); on NB7+Caspase-8 (setting [3]) it was above 12.5 µM; on NB7+Caspase-8 (setting [4]), above 12.5 µM.

Turning to `O=C(Nc1ccc(Br)cc1F)c1ccc2c(c1)OCCO2`, the EC50 result in experiment [1] (mean of runs) and in experiment [2] was “inactive” each time. Besides, the EC50 in experiment [1] (setting [3]) is above 12.5 µM; in experiment [1] (setting [4]) it was 11.2 µM; on NB7+Caspase-8 (setting [3]), above 12.5 µM; at NB7+Caspase-8 (setting [4]) it was 12.5 µM.

`Cc1cc(N/N=C/c2ccccc2)nc(NCc2ccccc2)n1`: the EC50 in experiment [1] (mean of runs) is > 12.5 µM (inactive); in experiment [1] (setting [3]) it was above 12.5 µM; in experiment [1] (setting [4]), above 12.5 µM; on NB7+Caspase-8 (setting [3]), above 12.5 µM; on NB7+Caspase-8 (setting [4]) it was 10.9 µM. In addition, the EC50 entry in experiment [2] is “inactive”.

On to `Cc1ccc(N=C/C(C(=O)C(F)(F)F)=C(\O)c2cccs2)cc1`, for which the EC50 result in experiment [1] (mean of runs) and in experiment [2] was “inactive” each time. Also, the EC50 was above 12.5 µM in experiment [1] (setting [3]), 1.87 µM in experiment [1] (setting [4]), 6.11 µM on NB7+Caspase-8 (setting [3]) and 4 µM on NB7+Caspase-8 (setting [4]).

Take `COc1cccc(N/C=C/C(=O)c2ccc(Cl)cc2)c1`: the EC50 result in experiment [1] (mean of runs) and in experiment [2] was “inactive” throughout. The EC50 is 10.4 µM in experiment [1] (setting [3]), 10.3 µM in experiment [1] (setting [4]), above 12.5 µM on NB7+Caspase-8 (setting [3]) and 11.1 µM on NB7+Caspase-8 (setting [4]).

Take `CCOc1ccc(/C=C/C(=O)Nc2cccc(C(C)=O)c2)cc1`: the EC50 in experiment [1] (mean of runs) is > 12.5 µM (inactive); in experiment [1] (setting [3]), above 12.5 µM; in experiment [1] (setting [4]), above 12.5 µM; in experiment [2] it was > 12.5 µM (inactive); at NB7+Caspase-8 (setting [3]), above 12.5 µM; at NB7+Caspase-8 (setting [4]), above 12.5 µM.

Take `CCC(C)c1ccc(O)c(NC(=S)NC(=O)c2cccs2)c1` (stereo not given): the EC50 entry in experiment [1] (mean of runs) and in experiment [2] was “inactive” in each case. The EC50 in experiment [1] (setting [3]) was 5.97 µM; in experiment [1] (setting [4]) it was 8.18 µM; at NB7+Caspase-8 (setting [3]), above 12.5 µM; on NB7+Caspase-8 (setting [4]), 7.09 µM.

On to `COc1cccc(NC(=O)c2ccc3c(c2)OCO3)c1`, for which the EC50 entry in experiment [1] (mean of runs) and in experiment [2] was “inactive” throughout. Further, the EC50 in experiment [1] (setting [3]) was 8.96 µM; in experiment [1] (setting [4]), 11.9 µM; on NB7+Caspase-8 (setting [3]) it was 7.39 µM; at NB7+Caspase-8 (setting [4]), 11 µM.

Consider `COc1ccc(-c2nc(-c3ccc(NC(=O)c4ccncc4)cc3)no2)cc1OC`, for which the EC50 in experiment [1] (mean of runs) is > 12.5 µM (inactive); in experiment [1] (setting [3]) it was above 12.5 µM; in experiment [1] (setting [4]), above 12.5 µM; in experiment [2], > 12.5 µM (inactive); on NB7+Caspase-8 (setting [3]) it was above 12.5 µM; at NB7+Caspase-8 (setting [4]), above 12.5 µM.

For `COCCNc1c(-c2cc3ccc(C)c(C)c3[nH]c2=O)nc2ccccn12`, the EC50 result in experiment [1] (mean of runs) and in experiment [2] was “inactive” throughout. For the same molecule, the EC50 in experiment [1] (setting [3]) is above 12.5 µM; in experiment [1] (setting [4]), 6.1 µM; on NB7+Caspase-8 (setting [3]) it was 8.39 µM; on NB7+Caspase-8 (setting [4]) it was 4.64 µM.

Regarding `COc1ccc(-c2nnc(SCC(=O)c3[nH]c(C)c(C(C)=O)c3C)o2)cc1`, the EC50 in experiment [1] (mean of runs) was > 12.5 µM (inactive); in experiment [1] (setting [3]), above 12.5 µM; in experiment [1] (setting [4]), above 12.5 µM; in experiment [2] it was > 12.5 µM (inactive); at NB7+Caspase-8 (setting [3]), above 12.5 µM; on NB7+Caspase-8 (setting [4]), above 12.5 µM.

For the molecule `Cn1nnc(NC(=O)c2ccc(C(C)(C)C)cc2)n1`, the EC50 entry in experiment [1] (mean of runs) and in experiment [2] was “inactive” throughout. For the same molecule, the EC50 in experiment [1] (setting [3]) was above 12.5 µM; in experiment [1] (setting [4]) it was 5.83 µM; at NB7+Caspase-8 (setting [3]), above 12.5 µM; on NB7+Caspase-8 (setting [4]), 5.01 µM.
